Experiment [1] concerns the target EGFR (Balb/c mice) (UniProt P00533). The following applies: balb/c3t3.
In another experiment the target is EGFR (UniProt P00533).
In the next experiment the target is EGFR (human) (UniProt P00533). The following applies: a431.
Experiment [2] concerns the target EGFR (Balb/c mice) (UniProt P00533). The note with it: balb/mk cells.

Each structure is given as a SMILES string.

Here are results for 28 molecules from the Kinase Knowledgebase extract (Sharma et al. 2016).

In general, IC50 refers to the concentration that gives 50% inhibition. Read a high IC50 as weaker potency.

Chain of EGFR (P00533 whole entry, looked up): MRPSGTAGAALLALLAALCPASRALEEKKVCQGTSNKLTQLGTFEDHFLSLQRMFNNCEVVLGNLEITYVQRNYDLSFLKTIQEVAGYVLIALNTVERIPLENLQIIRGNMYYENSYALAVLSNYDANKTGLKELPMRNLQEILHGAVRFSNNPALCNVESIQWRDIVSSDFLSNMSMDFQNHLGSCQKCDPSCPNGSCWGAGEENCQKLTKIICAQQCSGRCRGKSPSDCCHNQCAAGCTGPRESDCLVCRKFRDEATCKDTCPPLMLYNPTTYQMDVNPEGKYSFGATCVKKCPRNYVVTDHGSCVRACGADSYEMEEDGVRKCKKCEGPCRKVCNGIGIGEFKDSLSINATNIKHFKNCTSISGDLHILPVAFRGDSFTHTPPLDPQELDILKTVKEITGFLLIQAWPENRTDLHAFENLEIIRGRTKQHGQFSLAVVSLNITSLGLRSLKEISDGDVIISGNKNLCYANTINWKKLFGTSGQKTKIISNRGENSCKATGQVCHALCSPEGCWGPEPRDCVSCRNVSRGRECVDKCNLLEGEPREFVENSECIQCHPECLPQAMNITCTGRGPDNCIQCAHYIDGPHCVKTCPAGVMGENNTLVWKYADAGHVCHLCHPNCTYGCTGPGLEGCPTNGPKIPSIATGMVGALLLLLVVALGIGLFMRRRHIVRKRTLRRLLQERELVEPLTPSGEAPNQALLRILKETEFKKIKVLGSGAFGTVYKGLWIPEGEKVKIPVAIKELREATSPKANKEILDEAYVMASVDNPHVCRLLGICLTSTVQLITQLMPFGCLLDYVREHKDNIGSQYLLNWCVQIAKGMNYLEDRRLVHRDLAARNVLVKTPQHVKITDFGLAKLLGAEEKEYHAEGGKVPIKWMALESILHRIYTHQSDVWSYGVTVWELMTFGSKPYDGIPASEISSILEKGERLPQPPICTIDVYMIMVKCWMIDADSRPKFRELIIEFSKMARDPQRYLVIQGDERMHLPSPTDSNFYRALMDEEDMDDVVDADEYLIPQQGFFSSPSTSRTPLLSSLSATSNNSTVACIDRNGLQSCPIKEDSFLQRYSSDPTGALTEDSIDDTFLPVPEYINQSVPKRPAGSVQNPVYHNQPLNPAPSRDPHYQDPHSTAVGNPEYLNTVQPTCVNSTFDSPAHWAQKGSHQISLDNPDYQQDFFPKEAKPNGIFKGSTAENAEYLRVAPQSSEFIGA
Chain of EGFR (human) (P00533 whole entry, looked up): as above

Turning to `CN1CCN(C(=O)c2cc3c(Nc4cccc(Cl)c4)ncnc3[nH]2)CC1`, the IC50 with EGFR (Balb/c mice) [1] fell in the range of 1 to 100 nM; on EGFR, 0.5 to 1000 nM; with EGFR (Balb/c mice) [2], 100 to 1000 nM. The IC100 result against EGFR (human) is reported as “Between 0.001 to 1.000 uM”.

For `CC(C)S(=O)(=O)Nc1cccc(-c2cc3c(Nc4cccc(Cl)c4)ncnc3[nH]2)c1`, the values for the half-maximal inhibitory concentration (IC50) in the experiment with EGFR (Balb/c mice) [1], at EGFR and in the experiment with EGFR (Balb/c mice) [2] were 1 to 100 nM, 0.5 to 1000 nM and 100 to 1000 nM, respectively.

In the case of `C[C@@H](Nc1ncnc2[nH]c(-c3cccc(NS(C)(=O)=O)c3)cc12)c1ccccc1`, the IC50 was in the range of 1 to 100 nM with EGFR (Balb/c mice) [1], 0.5 to 1000 nM at EGFR and 100 to 1000 nM with EGFR (Balb/c mice) [2].

Turning to `CNC(=S)Nc1cccc(-c2cc3c(N[C@H](C)c4ccccc4)ncnc3[nH]2)c1`, the IC50 fell in the range of 1 to 100 nM in the experiment with EGFR (Balb/c mice) [1], 0.5 to 1000 nM on EGFR and 100 to 1000 nM in the experiment with EGFR (Balb/c mice) [2].

Consider `O=C(c1ccc(-c2cc3c(Nc4cccc(Cl)c4)ncnc3[nH]2)cc1)N1CCOCC1`, for which the IC50 lay in the range of 1 to 100 nM with EGFR (Balb/c mice) [1], 0.5 to 1000 nM at EGFR and 100 to 1000 nM with EGFR (Balb/c mice) [2].

With `COc1ccc(-c2csc(-c3cc4c(Nc5cccc(Cl)c5)ncnc4[nH]3)n2)cc1`, the IC50 in the experiment with EGFR (Balb/c mice) [1] fell in the range of 1 to 100 nM; on EGFR, 0.5 to 1000 nM; with EGFR (Balb/c mice) [2], 100 to 1000 nM.

Regarding `CN1CCN(Cc2cc3c(Nc4cccc(Cl)c4)ncnc3[nH]2)CC1`, the 50% inhibitory concentration (IC50) in the experiment with EGFR (Balb/c mice) [1] was in the range of 1 to 100 nM; against EGFR, 0.5 to 1000 nM; with EGFR (Balb/c mice) [2], 100 to 1000 nM.

For `CS(=O)(=O)Nc1cccc(-c2cc3c(Nc4cccc(Cl)c4)ncnc3[nH]2)c1`, the half-inhibitory concentration (IC50) with EGFR (Balb/c mice) [1] is 1 to 100 nM; at EGFR it was 0.5 to 1000 nM; with EGFR (Balb/c mice) [2] it was 100 to 1000 nM.

For the molecule `O=S(=O)(Nc1ccc(-c2cc3c(Nc4cccc(Cl)c4)ncnc3[nH]2)cc1)c1ccccc1`, the half-maximal inhibitory concentration (IC50) fell in the range of 1 to 100 nM with EGFR (Balb/c mice) [1], 0.5 to 1000 nM on EGFR and 100 to 1000 nM with EGFR (Balb/c mice) [2].

For the molecule `CCOC(=O)Nc1ccc(-c2cc3c(Nc4cccc(Cl)c4)ncnc3[nH]2)cc1`, the IC50 is 1 to 100 nM in the experiment with EGFR (Balb/c mice) [1], 0.5 to 1000 nM against EGFR and 100 to 1000 nM with EGFR (Balb/c mice) [2].

Regarding `COc1cc(-c2cc3c(Nc4ccccc4)ncnc3[nH]2)ccc1O`, the IC50 with EGFR (Balb/c mice) [1] was in the range of 1 to 100 nM; on EGFR, 0.5 to 1000 nM; with EGFR (Balb/c mice) [2], 100 to 1000 nM.

Turning to `NC(=S)c1cc2c(Nc3cccc(Cl)c3)ncnc2[nH]1`, the results for the IC50 in the experiment with EGFR (Balb/c mice) [1], on EGFR and with EGFR (Balb/c mice) [2] were 1 to 100 nM, 0.5 to 1000 nM and 100 to 1000 nM, respectively.

With `COc1ccc(CNCc2cc3c(Nc4cccc(Cl)c4)ncnc3[nH]2)cc1`, the values for the IC50 with EGFR (Balb/c mice) [1], against EGFR and in the experiment with EGFR (Balb/c mice) [2] were 1 to 100 nM, 0.5 to 1000 nM and 100 to 1000 nM, respectively.

For `Clc1cccc(Nc2ncnc3[nH]c(-c4nnn[nH]4)cc23)c1`, the IC50 with EGFR (Balb/c mice) [1] was 1 to 100 nM; at EGFR, 0.5 to 1000 nM; with EGFR (Balb/c mice) [2], 100 to 1000 nM.

Turning to `COc1cc(-c2cc3c(Nc4cccc(C)c4)ncnc3[nH]2)ccc1O`, the half-maximal inhibitory concentration (IC50) in the experiment with EGFR (Balb/c mice) [1] was in the range of 1 to 100 nM; at EGFR it was 0.5 to 1000 nM; in the experiment with EGFR (Balb/c mice) [2], 100 to 1000 nM.

In the case of `Clc1cccc(Nc2ncnc3[nH]c(-c4ccc(NCc5ccccc5)cc4)cc23)c1`, the IC50 with EGFR (Balb/c mice) [1] is 1 to 100 nM; against EGFR, 0.5 to 1000 nM; in the experiment with EGFR (Balb/c mice) [2], 100 to 1000 nM.

With `Clc1cccc(Nc2ncnc3[nH]c(CN4CCOCC4)cc23)c1`, the IC50 in the experiment with EGFR (Balb/c mice) [1] was in the range of 1 to 100 nM; on EGFR, 0.5 to 1000 nM; with EGFR (Balb/c mice) [2] it was 100 to 1000 nM.

Take `Clc1cccc(Nc2ncnc3[nH]c(-c4nccs4)cc23)c1`: the half-inhibitory concentration (IC50) in the experiment with EGFR (Balb/c mice) [1] fell in the range of 1 to 100 nM; on EGFR, 0.5 to 1000 nM; in the experiment with EGFR (Balb/c mice) [2] it was 100 to 1000 nM.

For `CC(C)S(=O)(=O)Nc1ccc(-c2cc3c(N[C@H](C)c4ccccc4)ncnc3[nH]2)cc1`, the IC50 with EGFR (Balb/c mice) [1] fell in the range of 1 to 100 nM; against EGFR, 0.5 to 1000 nM; with EGFR (Balb/c mice) [2], 100 to 1000 nM.

As to `CCS(=O)(=O)Nc1ccc(-c2cc3c(N[C@H](C)c4ccccc4)ncnc3[nH]2)cc1`, the IC50 with EGFR (Balb/c mice) [1] lay in the range of 1 to 100 nM; on EGFR, 0.5 to 1000 nM; in the experiment with EGFR (Balb/c mice) [2], 100 to 1000 nM.

In the case of `CCNC(=O)Nc1cccc(-c2cc3c(N[C@H](C)c4ccccc4)ncnc3[nH]2)c1`, the half-inhibitory concentration (IC50) was 1 to 100 nM with EGFR (Balb/c mice) [1], 0.5 to 1000 nM at EGFR and 100 to 1000 nM with EGFR (Balb/c mice) [2].

As for `CCN(C=Nc1ccc(-c2cc3c(Nc4cccc(Cl)c4)ncnc3[nH]2)cc1)CC`, the 50% inhibitory concentration (IC50) is 1 to 100 nM with EGFR (Balb/c mice) [1], 0.5 to 1000 nM at EGFR and 100 to 1000 nM with EGFR (Balb/c mice) [2].

With `CCNC(=O)Nc1ccc(-c2cc3c(N[C@H](C)c4ccccc4)ncnc3[nH]2)cc1`, the IC50 was 1 to 100 nM with EGFR (Balb/c mice) [1], 0.5 to 1000 nM on EGFR and 100 to 1000 nM in the experiment with EGFR (Balb/c mice) [2].

In the case of `Cn1nnc(-c2cc3c(Nc4cccc(Cl)c4)ncnc3[nH]2)n1.Cn1nnnc1-c1cc2c(Nc3cccc(Cl)c3)ncnc2[nH]1`, the half-inhibitory concentration (IC50) with EGFR (Balb/c mice) [1] lay within 1 to 100 nM; on EGFR, 0.5 to 1000 nM; with EGFR (Balb/c mice) [2] it was 100 to 1000 nM.

With `O=C(Nc1ccccc1)Nc1cccc(-c2cc3c(Nc4cccc(Cl)c4)ncnc3[nH]2)c1`, the IC50 with EGFR (Balb/c mice) [1] lay in the range of 1 to 100 nM; on EGFR, 0.5 to 1000 nM; with EGFR (Balb/c mice) [2] it was 100 to 1000 nM.

On to `ON=Cc1cc2c(Nc3cccc(Cl)c3)ncnc2[nH]1`, for which the values for the IC50 with EGFR (Balb/c mice) [1], against EGFR and with EGFR (Balb/c mice) [2] were 1 to 100 nM, 0.5 to 1000 nM and 100 to 1000 nM, respectively.

Turning to `C[C@@H](Nc1ncnc2[nH]c(-c3cccc(N=CN(C)C)c3)cc12)c1ccccc1`, the half-inhibitory concentration (IC50) lay within 1 to 100 nM with EGFR (Balb/c mice) [1], 0.5 to 1000 nM at EGFR and 100 to 1000 nM in the experiment with EGFR (Balb/c mice) [2].

Take `CN1CCN(C=Nc2ccc(-c3cc4c(Nc5cccc(Cl)c5)ncnc4[nH]3)cc2)CC1`: the results for the IC50 with EGFR (Balb/c mice) [1], against EGFR and with EGFR (Balb/c mice) [2] were 1 to 100 nM, 0.5 to 1000 nM and 100 to 1000 nM, respectively.
